Test results reported in patent US20050245510A1 (Boehringer Ingelheim Vetmedica GmbH, priority 2004, published 2005).

Legend:
[1] = system: mastitis cases; settings: infused intramammarily in special vehicle together with amoxicillin/clavulanic acid; cited from earlier work
[2] = system: E. coli endotoxin 026:B6 lipopolysaccharide induced mastitis in lactating cows; assay type: in vivo
Protocol: A blinded in-vivo study with a parallel group design was conducted in 2003. The study was conducted according to Good Laboratory Practices.
The animals were clinically examined before endotoxin-challenge and at 2 h (before treatment), 4 h, 6 h, 8 h, 10 h, 24 h, 34 h, 48 h, 72 h, 7 days, and 14 days after endotoxin-challenge.
The size of the challenged udder quarter was documented using the following score: • 0 Normal • 1 Slight increase up to 20% • 2 20-50% increase • 3 More than 50% increase
Ruminal contractions during a 2 minutes period were examined by auscultation in the left paralumbar fossa. In painful conditions of any kind, the frequency of ruminal contractions in ruminants tends to decrease.
Milk samples for analysis of thromboxane B2 (TBX)—a relevant mediator of inflammation—were taken from the endotoxin-challenged quarter before endotoxin challenge and at 2 h (before treatment), 4 h, 6 h, 8 h, 10 h, and 24 h after endotoxin-challenge.
Milk somatic cell count (SCC) was measured before endotoxin-challenge and at 10 h, 24 h, 34 h, 48 h, 72 h, 7 days, and 14 days after challenge.

SMILES	effect on pain perception [1]	ruminal contractions in 2 min, mean ± S.D. ([2]; 30 mg meloxicam per quarter, at 24 h after challenge)	size of challenged udder quarter, mean score ± S.D. ([2]; 30 mg meloxicam per quarter, intramammary 2 h after challenge, at 10 h after challenge)	standardised difference of udder size score versus untreated ([2]; 30 mg meloxicam, 10 h, difference in means divided by larger S.D. (untreated group))	standardised difference of ruminal contractions versus untreated ([2]; 30 mg meloxicam, 24 h, calculated with larger S.D. (untreated group))	local and systemic tolerance ([2]; intramammary, dose range 10-50 mg per affected udder quarter)
Cc1c(Nc2ncccc2C(=O)O)cccc1C(F)(F)F [flunixin, flunixin meglumine]	no beneficial effect on pain perception					
Cc1cnc(NC(=O)C2=C(O)c3ccccc3S(=O)(=O)N2C)s1 [meloxicam]		3.4±0.55	1.2±0.44 score (0-3)	1.2	0.9	good
